Experimental data: ChEMBL document CHEMBL1157155, “Bioactive alkenylphenols from Piper obliquum” (Bioorg Med Chem, 2008)
Values after ≈ are worked out from the molar mass of the structure shown. Active and inactive are the calls of the source. The calls are words filed in the database; no cut-off is given here.

What was measured:
Jurkat [1] = test: (§1) Effect on NF-kappaB expressed in Jurkat 5.1 cells assessed as inhibition of TNF-alpha-induced HIV1-LTR transactivation preincubated for 15 mins by luciferase gene reporter assay; assay type: cell-based
Escherichia coli = test: Antibacterial activity against Escherichia coli after 24 hrs by broth microdilution method; assay type: functional
[2] = test system: Staphylococcus epidermidis; test: Antibacterial activity against Staphylococcus epidermis after 24 hrs by broth microdilution method; assay type: functional
Jurkat [3] = test: Effect on NF-kappaB expressed in Jurkat 5.1 cells assessed as inhibition of TNF-alpha-induced IkappaBalpha degradation at 10 uM preincubated for 15 mins by Western blot; assay type: cell-based
[4] = as §1; assay type: cell-based
[5] = Effect on NF-kappaB expressed in HeLa-Tet-On cells assessed as inhibition of doxycyclin-induced HIV1-LTR transactivation preincubated for 15 mins by luciferase gene reporter assay; assay type: cell-based
Jurkat [6] = test: Effect on NF-kappaB expressed in Jurkat 5.1 cells assessed as inhibition of TNF-alpha-induced IkappaBalpha phosphorylation at 10 uM preincubated for 15 mins by Western blot; assay type: cell-based

SMILES | Activity (Jurkat [1]) | MIC (Escherichia coli) [µg/mL] | MIC [2] [µg/mL] | Activity (Jurkat [3]) | IC50 [4] [µM] | Activity [5] | Activity (Jurkat [6])
CC(C)=CCC/C(C)=C/CCC1(C)CC(=O)c2cc(C(=O)O)ccc2O1 (configuration not stated) | inactive | 100 (≈ 281 µM) | 50 (≈ 140 µM) | – | – | – | –
COc1ccc(/C=C/C(=O)c2c(O)cc(OC)c(OC)c2OC)cc1OC | inactive | 10 (≈ 26.7 µM) | 10 (≈ 26.7 µM) | – | – | – | –
CC(C)=CCC/C(C)=C/CC/C(C)=C/Cc1cc(C(=O)O)ccc1O | inactive | – | – | – | – | – | –
CC1(C)S[C@@H]2[C@H](NC(=O)[C@H](N)c3ccccc3)C(=O)N2[C@H]1C(=O)O [AMPICILLIN] | – | 5 (≈ 14.3 µM) | 1 (≈ 2.86 µM) | – | – | – | –
CCCCCCCCC/C=C/CCCc1ccc(O)cc1 [OBLIQUOL A] | – | 5 (≈ 17.3 µM) | 2.5 (≈ 8.67 µM) | – | – | – | –
CCCCCCCCC/C=C/CCCc1ccc(O)c(O)c1 [OBLIQUOL B] | – | 5 (≈ 16.4 µM) | 5 (≈ 16.4 µM) | Active | 5 | inactive | Active
